For 12 compounds, EC50 and Emax results are on record in patent US20240208992A1, “MACROCYCLES AS CFTR MODULATORS” (Idorsia Pharmaceuticals Ltd, priority 2021, published 2024).

This assay addresses human F508del-CFTR (Homo sapiens, UniProt P13569, DEL508-508). Description: F508del-CFTR cell surface expression (corrector activity), DiscoveRx ß-galactosidase complementation chemiluminescence assay in recombinant U2OS cell line.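 As to all read-outs here: U2OS cells co-expressing ProLink-tagged F508del-CFTR and a membrane-anchored enzyme acceptor, where more surface CFTR restores β-galactosidase activity measured by chemiluminescence.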 As to conditions: U2OS cell line, 16h compound incubation; for EC50: EC50, F508del-CFTR cell surface expression, geomean values; for Emax: U2OS, in relation to the Emax of the corrector lumacaftor (=100%), arithmetic mean values.

human F508del-CFTR, sequence (P13569 with tags, fused parts or gaps DEL508-508): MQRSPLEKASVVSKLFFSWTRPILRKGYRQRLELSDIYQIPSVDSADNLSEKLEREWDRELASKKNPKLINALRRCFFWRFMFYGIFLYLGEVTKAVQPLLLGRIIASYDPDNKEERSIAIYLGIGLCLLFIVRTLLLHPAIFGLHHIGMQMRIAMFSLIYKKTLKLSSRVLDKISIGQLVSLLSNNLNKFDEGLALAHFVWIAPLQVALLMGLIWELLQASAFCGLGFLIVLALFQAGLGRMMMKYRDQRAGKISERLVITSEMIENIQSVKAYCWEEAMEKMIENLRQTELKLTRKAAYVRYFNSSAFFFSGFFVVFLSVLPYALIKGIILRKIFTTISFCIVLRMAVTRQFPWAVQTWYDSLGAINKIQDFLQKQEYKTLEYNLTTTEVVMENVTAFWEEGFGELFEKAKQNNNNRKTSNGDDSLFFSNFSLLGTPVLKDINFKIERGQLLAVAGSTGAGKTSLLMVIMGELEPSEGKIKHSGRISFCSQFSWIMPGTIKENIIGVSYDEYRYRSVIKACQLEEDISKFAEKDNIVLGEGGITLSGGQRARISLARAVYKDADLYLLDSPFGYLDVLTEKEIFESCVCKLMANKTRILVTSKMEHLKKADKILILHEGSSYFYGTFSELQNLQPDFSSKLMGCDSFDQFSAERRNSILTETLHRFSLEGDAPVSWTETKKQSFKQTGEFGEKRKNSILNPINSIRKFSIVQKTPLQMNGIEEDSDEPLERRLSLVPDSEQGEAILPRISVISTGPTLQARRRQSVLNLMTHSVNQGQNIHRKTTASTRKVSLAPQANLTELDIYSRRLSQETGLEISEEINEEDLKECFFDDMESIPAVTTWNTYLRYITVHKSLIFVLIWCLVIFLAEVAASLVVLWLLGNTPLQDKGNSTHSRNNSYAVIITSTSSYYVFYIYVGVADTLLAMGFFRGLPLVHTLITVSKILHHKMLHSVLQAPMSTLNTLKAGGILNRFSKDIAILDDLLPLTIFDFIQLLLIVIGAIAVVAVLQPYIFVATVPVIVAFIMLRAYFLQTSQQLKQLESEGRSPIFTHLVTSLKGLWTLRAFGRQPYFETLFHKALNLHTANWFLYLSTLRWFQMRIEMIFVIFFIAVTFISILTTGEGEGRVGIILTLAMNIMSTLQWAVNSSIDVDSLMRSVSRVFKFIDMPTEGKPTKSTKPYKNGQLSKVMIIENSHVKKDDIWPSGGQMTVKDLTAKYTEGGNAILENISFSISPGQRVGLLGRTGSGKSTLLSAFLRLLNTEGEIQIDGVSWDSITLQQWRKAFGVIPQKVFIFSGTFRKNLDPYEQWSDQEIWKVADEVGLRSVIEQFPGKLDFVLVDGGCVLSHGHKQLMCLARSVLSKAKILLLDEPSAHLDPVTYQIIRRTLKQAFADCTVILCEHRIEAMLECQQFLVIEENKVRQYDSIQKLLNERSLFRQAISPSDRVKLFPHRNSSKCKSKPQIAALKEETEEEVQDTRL

Usually EC50 stands for the concentration needed to bring the measured effect to its halfway point. As usually defined, the Emax is the maximal effect, on the per cent scale that the assay sets. Take `COc1cccc2c1C(=O)N[C@H](C(=O)NCCc1ccc(N(C)C)cc1)CC(=O)N(C)[C@@H](CC(C)C)C(=O)N(CCC1CCCCC1)CC(=O)N[C@H](Cc1ccccc1)CO2` [Example 203, (3R,9S,13S)-3-benzyl-7-(2-cyclohexylethyl)-N-(4-(dimethylamino)phenethyl)-9-isobutyl-16-methoxy-10-methyl-5,8,11,15-tetraoxo-2,3,4,5,6,7,8,9,10,11,12,13,14,15-tetradecahydrobenzo[p][1]oxa[4,7,10,14]tetraazacycloheptadecine-13-carboxamide]: the EC50 was found to be 183 nM and the Emax was 134%.

Turning to `COc1cccc2c1C(=O)N[C@H](C(=O)NCCc1ccccc1F)CC(=O)N(C)[C@@H](CC(C)C)C(=O)N(CCC1CCCCC1)CC(=O)N[C@H](Cc1ccccc1)CO2` [Example 204, (3R,9S,13S)-3-benzyl-7-(2-cyclohexylethyl)-N-(2-fluorophenethyl)-9-isobutyl-16-methoxy-10-methyl-5,8,11,15-tetraoxo-2,3,4,5,6,7,8,9,10,11,12,13,14,15-tetradecahydrobenzo[p][1]oxa[4,7,10,14]tetraazacycloheptadecine-13-carboxamide], the EC50 was determined as 198 nM and the Emax was found to be 173%.

Consider `COc1cc(CCNC(=O)[C@@H]2CC(=O)N(C)[C@@H](CC(C)C)C(=O)N(CCC3CCCCC3)CC(=O)N[C@H](Cc3ccccc3)COc3cccc(OC)c3C(=O)N2)cc(OC)c1` [Example 205, (3R,9S,13S)-3-benzyl-7-(2-cyclohexylethyl)-N-(3,5-dimethoxyphenethyl)-9-isobutyl-16-methoxy-10-methyl-5,8,11,15-tetraoxo-2,3,4,5,6,7,8,9,10,11,12,13,14,15-tetradecahydrobenzo[p][1]oxa[4,7,10,14]tetraazacycloheptadecine-13-carboxamide], for which the EC50 stood at 175 nM and the maximum response (Emax) turned out to be 229%.

Consider `COc1cccc2c1C(=O)N[C@H](C(=O)NCCc1cccs1)CC(=O)N(C)[C@@H](CC(C)C)C(=O)N(CCC1CCCCC1)CC(=O)N[C@H](Cc1ccccc1)CO2` [Example 206, (3R,9S,13S)-3-benzyl-7-(2-cyclohexylethyl)-9-isobutyl-16-methoxy-10-methyl-5,8,11,15-tetraoxo-N-(2-(thiophen-2-yl)ethyl)-2,3,4,5,6,7,8,9,10,11,12,13,14,15-tetradecahydrobenzo[p][1]oxa[4,7,10,14]tetraazacycloheptadecine-13-carboxamide], for which the EC50 was 272 nM and the Emax came to 164%.

With `COc1ccc(CCNC(=O)[C@@H]2CC(=O)N(C)[C@@H](CC(C)C)C(=O)N(CCC3CCCCC3)CC(=O)N[C@H](Cc3ccccc3)COc3cccc(OC)c3C(=O)N2)nc1` [Example 207, (3R,9S,13S)-3-benzyl-7-(2-cyclohexylethyl)-9-isobutyl-16-methoxy-N-(2-(5-methoxypyridin-2-yl)ethyl)-10-methyl-5,8,11,15-tetraoxo-2,3,4,5,6,7,8,9,10,11,12,13,14,15-tetradecahydrobenzo[p][1]oxa[4,7,10,14]tetraazacycloheptadecine-13-carboxamide], the EC50 was 317 nM and the maximal effect (Emax) came to 138%.

As for `COc1cccc2c1C(=O)N[C@H](C(=O)NCCc1ccco1)CC(=O)N(C)[C@@H](CC(C)C)C(=O)N(CCC1CCCCC1)CC(=O)N[C@H](Cc1ccccc1)CO2` [Example 208, (3R,9S,13S)-3-benzyl-7-(2-cyclohexylethyl)-N-(2-(furan-2-yl)ethyl)-9-isobutyl-16-methoxy-10-methyl-5,8,11,15-tetraoxo-2,3,4,5,6,7,8,9,10,11,12,13,14,15-tetradecahydrobenzo[p][1]oxa[4,7,10,14]tetraazacycloheptadecine-13-carboxamide], the EC50 is 277 nM and the Emax amounted to 188%.

With `COc1cccc2c1C(=O)N[C@H](C(=O)NCCn1nc(C)cc1C)CC(=O)N(C)[C@@H](CC(C)C)C(=O)N(CCC1CCCCC1)CC(=O)N[C@H](Cc1ccccc1)CO2` [Example 209, (3R,9S,13S)-3-benzyl-7-(2-cyclohexylethyl)-N-(2-(3,5-dimethyl-1H-pyrazol-1-yl)ethyl)-9-isobutyl-16-methoxy-10-methyl-5,8,11,15-tetraoxo-2,3,4,5,6,7,8,9,10,11,12,13,14,15-tetradecahydrobenzo[p][1]oxa[4,7,10,14]tetraazacycloheptadecine-13-carboxamide], the 50% effective concentration (EC50) turned out to be 392 nM and the Emax came to 118%.

With `COCCCNC(=O)[C@@H]1CC(=O)N(C)[C@@H](CC(C)C)C(=O)N(CCC2CCCCC2)CC(=O)N[C@H](Cc2ccccc2)COc2cccc(OC)c2C(=O)N1` [Example 210, (3R,9S,13S)-3-benzyl-7-(2-cyclohexylethyl)-9-isobutyl-16-methoxy-N-(3-methoxypropyl)-10-methyl-5,8,11,15-tetraoxo-2,3,4,5,6,7,8,9,10,11,12,13,14,15-tetradecahydrobenzo[p][1]oxa[4,7,10,14]tetraazacycloheptadecine-13-carboxamide], the concentration giving a half-maximal response (EC50) came out at 352 nM and the Emax came out at 108%.

On to `COc1cccc2c1C(=O)N[C@H](C(=O)NCCc1ccccc1)CC(=O)N(C)[C@@H](CC(C)C)C(=O)N(CCC1CCCCC1)CC(=O)N[C@H](Cc1ccccc1)CO2` [Example 211, (3R,9S,13S)-3-benzyl-7-(2-cyclohexylethyl)-9-isobutyl-16-methoxy-10-methyl-5,8,11,15-tetraoxo-N-phenethyl-2,3,4,5,6,7,8,9,10,11,12,13,14,15-tetradecahydrobenzo[p][1]oxa[4,7,10,14]tetraazacycloheptadecine-13-carboxamide], for which the EC50 was found to be 309 nM and the Emax turned out to be 146%.

Regarding `COc1cccc2c1C(=O)N[C@H](C(=O)NCCc1cc(C)no1)CC(=O)N(C)[C@@H](CC(C)C)C(=O)N(CCC1CCCCC1)CC(=O)N[C@H](Cc1ccccc1)CO2` [Example 214, (3R,9S,13S)-3-benzyl-7-(2-cyclohexylethyl)-9-isobutyl-16-methoxy-10-methyl-N-(2-(3-methylisoxazol-5-yl)ethyl)-5,8,11,15-tetraoxo-2,3,4,5,6,7,8,9,10,11,12,13,14,15-tetradecahydrobenzo[p][1]oxa[4,7,10,14]tetraazacycloheptadecine-13-carboxamide], the concentration giving a half-maximal response (EC50) was 292 nM and the Emax turned out to be 221%.

With `CCc1ccc(CCNC(=O)[C@@H]2CC(=O)N(C)[C@@H](CC(C)C)C(=O)N(CCC3CCCCC3)CC(=O)N[C@H](Cc3ccccc3)COc3cccc(OC)c3C(=O)N2)cc1` [Example 215, (3R,9S,13S)-3-benzyl-7-(2-cyclohexylethyl)-N-(4-ethylphenethyl)-9-isobutyl-16-methoxy-10-methyl-5,8,11,15-tetraoxo-2,3,4,5,6,7,8,9,10,11,12,13,14,15-tetradecahydrobenzo[p][1]oxa[4,7,10,14]tetraazacycloheptadecine-13-carboxamide], the EC50 came out at 214 nM and the Emax amounted to 172%.

Consider `COCCCCCNC(=O)[C@@H]1CC(=O)N(C)[C@@H](CC(C)C)C(=O)N(CCC2CCCCC2)CC(=O)N[C@H](Cc2ccccc2)COc2cccc(OC)c2C(=O)N1` [Example 216, (3R,9S,13S)-3-benzyl-7-(2-cyclohexylethyl)-9-isobutyl-16-methoxy-N-(5-methoxypentyl)-10-methyl-5,8,11,15-tetraoxo-2,3,4,5,6,7,8,9,10,11,12,13,14,15-tetradecahydrobenzo[p][1]oxa[4,7,10,14]tetraazacycloheptadecine-13-carboxamide], for which the 50% effective concentration (EC50) is 420 nM and the Emax came out at 102%.
